Experimental data as given in BindingDB's records for doi:10.1016/j.ejmech.2012.02.023 (Sun Yat-Sen University, 2012).

Assay: Inhibition of TNF-alpha-induced NF-kappaB p65 nuclear translocation in human A549 cells after 2 hrs by fluorescence assay

Row | IC50 [µM] | SMILES
1 | 13.7 | O=C(/C=C/c1ccccc1Br)c1cccc(-c2cccc(F)c2)c1
2 | > 50 | O=C(/C=C/c1cccc(-c2ccc(F)cc2)c1)c1ccc(F)cc1
3 | > 50 | COc1ccc(/C=C/C(=O)c2ccc(N)c(-c3ccc(F)cc3)c2)cc1
4 | 10.3 | COc1ccc(OC)c(/C=C/C(=O)c2ccc(N)c(-c3ccc(F)cc3)c2)c1
5 | 6.83 | COc1cc(/C=C/C(=O)c2ccc(N)c(-c3ccc(F)cc3)c2)ccc1O
6 | > 50 | Nc1ccc(C(=O)/C=C/c2ccc(O)c(F)c2)cc1-c1ccc(F)cc1
7 | > 50 | COc1ccc(/C=C/C(=O)c2cccc(Br)c2)cc1
8 | > 50 | COc1ccc(/C=C/C(=O)c2cccc(-c3ccc(F)cc3)c2)cc1OC
9 | 9.59 | COc1ccc(/C=C/C(=O)c2cccc(-c3cccc(F)c3)c2)cc1O

More lines, now with the values behind:

Row | SMILES | IC50 [µM]
10 | O=C(/C=C/c1ccc(Cl)cc1)c1cccc(-c2cccc(F)c2)c1 | 24.4
11 | O=C(/C=C/c1cccc(Br)c1)c1cccc(-c2cccc(F)c2)c1 | 11.2
12 | COc1ccccc1/C=C/C(=O)c1cccc(-c2cccc(F)c2)c1 | 35.3
13 | COc1ccc(/C=C/C(=O)c2cccc(-c3cccc(F)c3)c2)cc1 | > 50
14 | COc1ccc(/C=C/C(=O)c2cccc(-c3cccc(F)c3)c2)cc1OC | 33.4
15 | COc1cccc(/C=C/C(=O)c2cccc(-c3cccc(F)c3)c2)c1OC | 24.1
16 | COc1cc(/C=C/C(=O)c2cccc(-c3cccc(F)c3)c2)ccc1O | 12.9
17 | O=C(/C=C/c1ccc(Br)cc1)c1cccc(-c2cccc(F)c2)c1 | > 50
18 | COc1ccc(/C=C/C(=O)c2ccc(N)c(-c3ccc(F)cc3)c2)cc1OC | > 50
19 | COc1cc(/C=C/C(=O)c2ccc(N)c(-c3ccc(F)cc3)c2)cc(OC)c1OC | 11.6
20 | COc1cc(/C=C/C(=O)c2ccc(N)c(-c3ccc(F)cc3)c2)cc(Br)c1O | > 50
21 | COc1ccc(-c2cc(C(=O)/C=C/c3ccc(F)cc3)ccc2N)cc1OC | 21.3
22 | COc1ccc(/C=C/C(=O)c2ccc(N)c(-c3ccc(OC)c(OC)c3)c2)c(OC)c1 | 1.7
23 | COc1ccc(OC)c(/C=C/C(=O)c2ccc(N)c(-c3ccc(OC)c(OC)c3)c2)c1 | 3.19
24 | COc1ccc(-c2cc(C(=O)/C=C/c3cccc(OC)c3OC)ccc2N)cc1OC | 11.9
25 | COc1ccc(/C=C/C(=O)c2cccc(Br)c2)cc1OC | > 50
26 | COc1ccc(/C=C/C(=O)c2cccc(Br)c2)cc1O | > 50
27 | COc1ccc(/C=C/C(=O)c2cccc(-c3ccc(F)cc3)c2)cc1 | > 50
28 | COc1ccc(/C=C/C(=O)c2cccc(-c3ccc(F)nc3)c2)cc1O | > 50
